Laboratory results from patent publication US6177438A, “Morphinan derivatives and pharmaceutical use thereof” (priority 1993, dated 2001).
Where a name gives a salt, the structure may show the parent alone. Read-outs that look alike come from different tables or passages of the source.

Legend:
[1] = system: cultured nerve cells (cerebral cortex); settings: 10 mM glutamic acid, 24 hours
[2] = system: cultured nerve cells (cerebral cortex); experiment: cells; settings: Rattus norvegicus, Cerebral cortex neuron, 24 h, read-out: ED50 (protection against glutamic acid toxicity)
[3] = system: extracted mouse vas deferens preparation; experiment: Opioid activity test using an extracted mouse vas deferens preparation (suppression of electrically induced contractions); parameters: species or system male ddy mouse; settings: electrical stimulus 0.1 Hz, 37° C.
Method: (§1) A male ddy mouse was used in this test. The vas deferens extracted from the animal was suspended in a Magnus tube filled with Krebes-Henseleit solution (NaCl 118 mM; KCl 4.7 mM; CaCl2 2.5 mM; KH2 PO4 1.1 mM; NaHCO3 25 mM; Glucose 11 mM) warmed to 37° C. and ventilated with 5% carbon dioxide and 95% oxygen. Electrical stimulus was performed at 0.1 Hz for 5.0 ms by means of ring-shaped platinum electrodes located above and below. Tissue contractions were recorded on a polygraph using an isometric transducer.
(§2) After adequately washing with nutrient solution and the contraction reaction stabilized, the μ agonist, naloxone, the δ agonist, NTI, or the κ agonist, norBNI, was added after which the test compound was again cumulatively added after roughly 20 minutes. The Ke value was calculated using the following calculation formula from the difference in the efficacies of both agonists.

μ receptor = molecular target: T1, μ receptor (Mus musculus, UniProt P42866); experiment: Opioid activity test using an extracted mouse vas deferens preparation, Ke with naloxone; parameters: species or system male ddy mouse; settings: naloxone added
T1 construct: naloxone as mu antagonist (printed 'agonist')
T1 sequence (P42866 whole entry): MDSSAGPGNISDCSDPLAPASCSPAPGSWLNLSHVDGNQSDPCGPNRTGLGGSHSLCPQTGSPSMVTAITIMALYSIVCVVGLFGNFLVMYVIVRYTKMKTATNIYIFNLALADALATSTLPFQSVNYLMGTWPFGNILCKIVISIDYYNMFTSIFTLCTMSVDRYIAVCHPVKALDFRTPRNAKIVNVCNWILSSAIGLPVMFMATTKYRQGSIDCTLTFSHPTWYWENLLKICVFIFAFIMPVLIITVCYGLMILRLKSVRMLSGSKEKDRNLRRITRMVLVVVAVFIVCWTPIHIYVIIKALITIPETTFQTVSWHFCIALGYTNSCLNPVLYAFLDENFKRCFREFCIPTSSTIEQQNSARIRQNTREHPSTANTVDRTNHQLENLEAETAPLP
Method: as §1, §2
(§3) Ke=[Conc. of added agonist]/(IC50 ratio-1)
(§4) IC50 ratio=IC50 in the presence of agonist/IC50 in the absence of agonist

δ receptor = molecular target: T2, δ receptor (Mus musculus, UniProt P32300); parameters: species or system male ddy mouse
T2 construct: The vas deferens extracted from the animal was suspended in a Magnus tube; from tissue; host or cells: mouse (male ddy) vas deferens
T2 sequence (P32300 whole entry): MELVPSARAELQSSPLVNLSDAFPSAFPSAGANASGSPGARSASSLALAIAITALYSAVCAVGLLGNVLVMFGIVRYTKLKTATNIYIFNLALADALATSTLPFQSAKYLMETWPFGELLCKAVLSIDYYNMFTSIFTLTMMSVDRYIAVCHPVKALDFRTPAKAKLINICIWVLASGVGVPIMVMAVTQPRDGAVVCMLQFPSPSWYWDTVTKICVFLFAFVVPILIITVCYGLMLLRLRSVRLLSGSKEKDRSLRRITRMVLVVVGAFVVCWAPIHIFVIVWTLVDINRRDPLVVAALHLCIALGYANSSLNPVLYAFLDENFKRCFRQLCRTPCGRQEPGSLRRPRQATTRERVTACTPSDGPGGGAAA

κ receptor = molecular target: T3, κ receptor (Mus musculus, UniProt P33534); experiment: Opioid activity test using an extracted mouse vas deferens preparation, Ke with norBNI; parameters: species or system male ddy mouse; settings: for receptor selectivity of agonist (κ): in words; for Ke, norBNI: κ, norBNI added
T3 construct: from tissue; host or cells: mouse (male ddy) vas deferens
T3 sequence (P33534 whole entry): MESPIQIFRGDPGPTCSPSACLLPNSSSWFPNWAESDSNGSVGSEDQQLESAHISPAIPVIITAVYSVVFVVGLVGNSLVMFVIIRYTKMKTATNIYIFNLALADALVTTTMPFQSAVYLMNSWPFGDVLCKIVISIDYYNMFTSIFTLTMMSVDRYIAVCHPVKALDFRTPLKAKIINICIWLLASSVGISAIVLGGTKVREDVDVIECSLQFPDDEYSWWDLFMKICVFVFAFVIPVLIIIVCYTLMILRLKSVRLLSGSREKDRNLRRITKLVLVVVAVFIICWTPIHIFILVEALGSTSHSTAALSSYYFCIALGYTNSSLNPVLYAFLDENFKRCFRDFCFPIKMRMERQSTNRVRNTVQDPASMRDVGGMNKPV
Method: as §1, §2, §3, §4

[4] = system: acetic acid-induced writhing in ddy mice; experiment: animal or person; type: in vivo, 5 week old ddy mice; settings: for ED50: s.c. 15 minutes before acetic acid; for analgesic activity: s.c., in words
Method: 5 week old ddy mice were used in this test. After intraperitoneal administration of 0.1 ml of 0.6% aqueous acetic acid per 10 g of body weight, the number of writhing reactions that occurred in 10 minutes starting 10 minutes after administration was evaluated for the indicator. The test drug was administered subcutaneously into the backs of the animals 15 minutes before administration of acetic acid.

[5] = Diuretic action (urine output for 5 hours after physiological saline loading in rats); type: in vivo, male Wistar rats; settings: for ED (200% urine output) / ED (500% urine output): Rattus norvegicus, sc, 5 hours after saline 20 ml/kg p.o.; for ED (200% urine output): dose giving urine output of 200 (non-dosed group = 100); for ED (500% urine output): dose giving urine output of 500 (non-dosed group = 100); for Diuretic action (in words): s.c., from ED200 values
Method in brief: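 Male Wistar rats (7-8 weeks), water withheld 1 h, bladder emptied, drug given subcutaneously; 30 min later 20 ml/kg saline orally. Urine collected 5 h after saline loading in metabolic cages; ED200 and ED500 are doses giving urine output of 200 and 500 relative to non-dosed group at 100.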

[6] = mouse vas deferens, δ, NTI added
[7] = Mus musculus, sc, read-out: ED50

In the case of `CN(C(=O)Cc1ccc2ccccc2c1)[C@@H]1CC[C@@]2(O)[C@H]3Cc4ccc(O)c5c4[C@@]2(CCN3CC2CC2)[C@H]1O5` [Compound 112, 17-cyclopropylmethyl-3,14β-dihydroxy-4,5α-epoxy-6β-(N-methyl-2-naphthylacetamido)morphinan.cndot.hydrochloride], the “Protective action against cytotoxicity caused by glutamic acid (in words)” value (shortened to “Protective action”) [1] is reported as “clearly demonstrated action that protects nerve cells from cytotoxicity caused by glutamic acid” and the EC50 [2] is reported as 4240 nM.

For `CO[C@@H](C(=O)N(C)[C@H]1CC[C@@]2(O)[C@H]3Cc4ccc(O)c5c4[C@@]2(CCN3CC2CC2)[C@H]1O5)c1ccccc1` [Compound 30, 17-cyclopropylmethyl-3,14β-dihydroxy-4,5α-epoxy-6α-[(R)-N-methylmethoxyphenylacetamido]morphinan.cndot.hydrochloride], the “Protective action” value [1] was “clearly demonstrated action that protects nerve cells from cytotoxicity caused by glutamic acid” and the EC50 [2] was 7950 nM.

With `CN(Cc1ccccc1)[C@@H]1CC[C@@]2(O)[C@H]3Cc4ccc(O)c5c4[C@@]2(CCN3CC2CC2)[C@H]1O5` [Compound 8, 6β-(N-Benzyl)methylamino-17-cyclopropylmethyl-4,5α-epoxy-3,14β-dihydroxymorphinan] the “Protective action” value [1] was “clearly demonstrated action that protects nerve cells from cytotoxicity caused by glutamic acid” and the EC50 [2] was 5750 nM.

For `CN(CCc1ccc(Cl)c(Cl)c1)[C@H]1CC[C@@]2(O)[C@H]3Cc4ccc(O)c5c4[C@@]2(CCN3CC2CC2)[C@H]1O5` [Compound 135, 17-Cyclopropylmethyl-3,14β-dihydroxy-4,5α-epoxy-6α-[N-methyl-N-2-(3,4-dichlorophenyl)ethylamino]morphinan.cndot.1.8 hydrochloride], the “Protective action” value [1] was “clearly demonstrated action that protects nerve cells from cytotoxicity caused by glutamic acid” and the EC50 [2] was 290 nM.

In the case of `CN(C(=O)OCc1ccc([N+](=O)[O-])cc1)[C@H]1CC[C@@]2(O)[C@H]3Cc4ccc(O)c5c4[C@@]2(CCN3CC2CC2)[C@H]1O5` [Compound 43, 17-cyclopropylmethyl-3,14β-dihydroxy-4,5α-epoxy-6α-(N-methyl-4-nitrobenzyloxycarbamido)morphinan.cndot.hydrochloride], the IC50 [3] is reported as 0.65 nM, the “Ke, Naloxone” value (μ receptor) is reported as 409 nM and the “Ke, NTI” value (δ receptor; [6]) is reported as 22.5 nM. For the same compound, the “receptor selectivity of agonist (κ)” value (κ receptor) was “selective agonists for κ receptors”, the “Ke, norBNI” value (κ receptor) was 5.31 nM and the ED50 [4, 7] was 5.5 µg/kg. The ED (200% urine output) [5] was 0.54 µg/kg, the ED (500% urine output) [5] was 4.4 µg/kg and the “Diuretic action (in words)” value [5] was “extremely strong diuretic action”.

In the case of `CCCCOC(=O)N(C)[C@@H]1CC[C@@]2(O)[C@H]3Cc4ccc(O)c5c4[C@@]2(CCN3CC2CC2)[C@H]1O5` [Compound 59, 17-cyclopropylmethyl-3,14β-dihydroxy-4,5α-epoxy-6β-(N-methylbutyroxycarbamido)morphinan.cndot.tartrate], the IC50 [3] is reported as 1.14 nM, the “Ke, Naloxone” value (μ receptor) is reported as 21.3 nM and the “Ke, NTI” value (δ receptor; [6]) is reported as 47.3 nM. For the same compound, the “receptor selectivity of agonist (κ)” value (κ receptor) was “selective agonists for κ receptors”, the “Ke, norBNI” value (κ receptor) was 0.151 nM and the ED50 [4, 7] was 2.8 µg/kg. It also gave an ED (200% urine output) [5] of 10.5 µg/kg and an ED (500% urine output) [5] of 2360 µg/kg.

With `CN(C(=O)Cc1cccc(C(F)(F)F)c1)[C@@H]1CC[C@@]2(O)[C@H]3Cc4ccc(O)c5c4[C@@]2(CCN3CC2CC2)[C@H]1O5` [Compound 116, 17-cyclopropylmethyl-3,14β-dihydroxy-4,5α-epoxy-6β-(N-methyl-3-trifluoromethylphenylacetamido)morphinan.cndot.hydrochloride] the “Protective action” value [1] was “clearly demonstrated action that protects nerve cells from cytotoxicity caused by glutamic acid” and the EC50 [2] was 2370 nM.

For `CN(C(=O)CCCc1ccccc1)[C@@H]1CC[C@@]2(O)[C@H]3Cc4ccc(O)c5c4[C@@]2(CCN3CC2CC2)[C@H]1O5` [Compound 150, 17-cyclopropylmethyl-4,5α-epoxy-3,14β-dihydroxy-6β-(N-methyl-4-phenylbutanoylamido)morphinan tartrate], the IC50 [3] was 1.67 nM, the “Ke, Naloxone” value (μ receptor) was 137 nM and the “Ke, NTI” value (δ receptor; [6]) was 55.6 nM. The “receptor selectivity of agonist (κ)” value (κ receptor) was “selective agonists for κ receptors”, the “Ke, norBNI” value (κ receptor) was 0.303 nM and the ED50 [4, 7] was 35 µg/kg. The ED (200% urine output) [5] was 42.9 µg/kg and the ED (500% urine output) [5] was 762 µg/kg.

With `CN(C(=O)/C=C/c1ccoc1)[C@H]1CC[C@@]2(O)[C@H]3Cc4ccc(O)c5c4[C@@]2(CCN3CC2CC2)[C@H]1O5` [Compound 89, 17-cyclopropylmethyl-3,14β-dihydroxy-4,5α-epoxy-6α-[N-methyl-trans-3-(3-furyl)acrylamido]morphinan.cndot.tartrate] the IC50 [3] was 0.0934 nM, the “Ke, Naloxone” value (μ receptor) was 18.3 nM and the “Ke, NTI” value (δ receptor) was 15.6 nM. For the same compound, the “receptor selectivity of agonist (κ)” value (κ receptor) was “selective agonists for κ receptors”, the “Ke, norBNI” value (κ receptor) was 0.85 nM and the ED50 [4, 7] was 4.71 µg/kg. For the same compound, the ED (200% urine output) [5] was 1.2 µg/kg and the ED (500% urine output) [5] was 16.2 µg/kg.

In the case of `CN(C(=O)CSc1ccccc1)[C@H]1CC[C@@]2(O)[C@H]3Cc4ccc(O)c5c4[C@@]2(CCN3CC2CC2)[C@H]1O5` [Compound 45, 17-cyclopropylmethyl-4,5α-epoxy-3,14β-dihydroxy-6α-(N-methylthiophenoxyacetamido)morphinan.cndot.tartrate], the IC50 [3] is reported as 0.185 nM, the “Ke, Naloxone” value (μ receptor) is reported as 26.5 nM and the “Ke, NTI” value (δ receptor; [6]) is reported as 135 nM. For the same compound, the “receptor selectivity of agonist (κ)” value (κ receptor) was “selective agonists for κ receptors”, the “Ke, norBNI” value (κ receptor) was 0.416 nM and the ED50 [4] was 3.8 µg/kg. For the same compound, the ED (200% urine output) [5] was 8.1 µg/kg and the ED (500% urine output) [5] was 857 µg/kg.

In the case of `CN(CCc1ccc(Cl)c(Cl)c1)[C@@H]1CC[C@@]2(O)[C@H]3Cc4ccc(O)c5c4[C@@]2(CCN3CC2CC2)[C@H]1O5` [Compound 136, 17-Cyclopropylmethyl-3,14β-dihydroxy-4,5α-epoxy-6β-[N-methyl-N-2-(3,4-dichlorophenyl)ethylamino]morphinan.cndot.1.9 hydrochloride], the “Protective action” value [1] is reported as “clearly demonstrated action that protects nerve cells from cytotoxicity caused by glutamic acid” and the EC50 [2] is reported as 640 nM.

With `CN(C(=O)OCc1ccccc1)[C@H]1CC[C@@]2(O)[C@H]3Cc4ccc(O)c5c4[C@@]2(CCN3CC2CC2)[C@H]1O5` [Compound 42, 17-cyclopropylmethyl-3,14β-dihydroxy-4,5α-epoxy-6α-(N-methylbenzyloxycarbamido)morphinan.cndot.tartrate] the IC50 [3] was 0.251 nM, the “Ke, Naloxone” value (μ receptor) was 186 nM and the “Ke, NTI” value (δ receptor; [6]) was 63.5 nM. The “receptor selectivity of agonist (κ)” value (κ receptor) was “selective agonists for κ receptors”, the “Ke, norBNI” value (κ receptor) was 0.905 nM and the ED50 [4, 7] was 1.36 µg/kg. For the same compound, the analgesic activity [4] was “particularly strong analgesic activity”, the ED (200% urine output) [5] was 0.85 µg/kg and the ED (500% urine output) [5] was 6.1 µg/kg. For the same compound, the “Diuretic action (in words)” value [5] was “extremely strong diuretic action”.

With `COc1cccc(/C=C/C(=O)N(C)[C@@H]2CC[C@@]3(O)[C@H]4Cc5ccc(O)c6c5[C@@]3(CCN4CC3CC3)[C@H]2O6)c1` [Compound 63, 17-cyclopropylmethyl-3,14β-dihydroxy-4,5α-epoxy-6β-(N-methyl-3-methoxycinnamamido)morphinan.cndot.tartrate] the IC50 [3] was 0.746 nM, the “Ke, Naloxone” value (μ receptor) was 60.9 nM and the “Ke, NTI” value (δ receptor; [6]) was 96.9 nM. The “receptor selectivity of agonist (κ)” value (κ receptor) was “selective agonists for κ receptors”, the “Ke, norBNI” value (κ receptor) was 1.60 nM and the ED50 [4, 7] was 1.1 µg/kg. The analgesic activity [4] was “particularly strong analgesic activity”, the ED (200% urine output) [5] was 3.8 µg/kg and the ED (500% urine output) [5] was 309 µg/kg.
